Experimental findings from ChEMBL document CHEMBL1145167, “Design and synthesis of 4-(alpha-hydroxymalonyl)phenylalanine as a new phosphotyrosyl mimetic and its use in growth factor receptor bound 2 src-homology 2 (Grb2 SH2) domain-binding peptides” (J Med Chem, 2005) are described below.

One test addresses T1, Growth factor receptor-bound protein 2 (Homo sapiens, UniProt P62993). Briefly: Inhibition of Grb2 SH2 domain binding in ELISA.
Target sequence in this assay (P62993 whole entry, the tested form may be a part): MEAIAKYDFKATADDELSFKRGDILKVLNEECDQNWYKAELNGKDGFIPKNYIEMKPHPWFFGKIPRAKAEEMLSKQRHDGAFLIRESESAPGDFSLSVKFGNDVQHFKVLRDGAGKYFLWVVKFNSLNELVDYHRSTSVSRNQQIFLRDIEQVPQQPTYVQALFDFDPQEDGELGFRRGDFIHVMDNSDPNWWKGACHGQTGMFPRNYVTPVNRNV
For `CC(=O)N[C@@H](Cc1ccc(OP(=O)(O)O)cc1)C(=O)NC1(C(=O)N[C@@H](CC(N)=O)C(=O)NCCCc2cccc3ccccc23)CCCCC1`, the IC50 (in general, the point on the concentration scale where inhibition reaches its midpoint) was 47 nM.

For the next test, the target named is T1, Growth factor receptor-bound protein 2. Briefly: Steady-state affinity constant for Grb2 SH2 domain binding by surface plasmon resonance. For orientation: SPR reads the build-up and loss of mass on a sensor chip optically.
Target sequence in this assay (P62993 whole entry, looked up, the tested form may be a part): as the sequence (P62993 whole entry, the tested form may be a part) above
`NC(=O)C[C@H](NC(=O)C1(NC(=O)[C@H](Cc2ccc(C(O)(C(=O)O)C(=O)O)cc2)NC(=O)C(=O)O)CCCCC1)C(=O)NCCCc1cccc2ccccc12` yielded a Keq of 0.27 µM.
Still for that read-out and setting: for `NC(=O)C[C@H](NC(=O)C1(NC(=O)[C@H](Cc2ccc(C(O)C(=O)O)cc2)NC(=O)C(=O)O)CCCCC1)C(=O)NCCCc1cccc2ccccc12` (stereo partly specified) the value was 1.54 µM; for `CC(=O)N[C@@H](Cc1ccc(OP(=O)(O)O)cc1)C(=O)NC1(C(=O)N[C@@H](CC(N)=O)C(=O)NCCCc2cccc3ccccc23)CCCCC1`, 0.24 µM.
On the same count and under the same terms, for `NC(=O)C[C@H](NC(=O)C1(NC(=O)[C@H](Cc2ccc(C(C(=O)O)C(=O)O)cc2)NC(=O)C(=O)O)CCCCC1)C(=O)NCCCc1cccc2ccccc12` the value was 0.149 µM; for `NC(=O)C[C@H](NC(=O)C1(NC(=O)[C@H](Cc2ccc(CC(=O)O)cc2)NC(=O)C(=O)O)CCCCC1)C(=O)NCCCc1cccc2ccccc12`, 6.11 µM.
